Results reported in patent US20250241902A1, “METHODS, COMPOSITIONS AND SYSTEMS FOR EVALUATION OF VISUAL FUNCTION” (BELITE BIO, INC, priority 2022, published 2025).
“And” between values parts separate entries of the source, which are not always exact repeats. Identical values can stand only once.

Columns and labels:
Assay type in all cases: in vivo, human
[1] = tested on: adolescent STGD1 patients; assay: Clinical study: ellipsoid zone (EZ) defect width by SD-OCT
Text: (§1) In some embodiments, spectral domain-optical coherence tomography (SD-OCT) is used for evaluation of ocular disease or visual function. In some embodiments, SD-OCT provides in vivo cross-sectional and […] visualization of the retina and the RPE. In some embodiments, SD-OCT is used to detect the presence of RPE atrophy. In some embodiments, SD-OCT is used to evaluate ellipsoid zone (EZ) defect width. In some embodiments, the EZ line provides information on the integrity of the photoreceptors. In some embodiments, the EZ line provides useful information in early disease. In some embodiments, an image of SD-OCT is used to evaluate the central subfield retina thickness (CST). In some embodiments, an image of SD-OCT is used to evaluate the middle subfield retina thickness (MST). In some embodiments, an image of SD-OCT is used to evaluate the outer subfield retina thickness (OST). The therapeutic effect of a compound of Formula (I), also known as Tinlarebant, was evaluated in a group of individuals with adolescent STGD. The treatment covered Phase 1b and Phase 2. Phase 1b included a 4-week treatment and a 14-day follow-up. Phase 2 included a 2-year treatment and 1-month follow-up. A total of 13 individuals received the treatment: 5 males and 8 females. All 13 individuals had STGD 1 aged 12-18 years old. All 13 individuals received the treatment of a compound of Formula (I), a RBP4 inhibitor. The clinical study evaluated ocular and systemic safety and tolerability of the compound and determined the optimal dose, pharmacokinetics (PK), and […]. The study measured visual improvement by best corrected visual acuity (BCVA) test, self-reported visual questionnaire test, the change in lesion size by FAF, the change in retinal thickness and morphology by SD-OCT, the change in retinal sensitivity by microperimetry, and the change in quantitative AF. In addition, this study evaluated correlation between reduction in RBP4 and rate of lesion growth including change in autofluorescence.

[2] = tested on: adolescent STGD1 patients; assay: Clinical study: lesion size by fundus autofluorescence (FAF; DDAF/QDAF); conditions: for FAF lesion area: subject 3, right eye
Text: Fundus autofluorescence (FAF) imaging is used as an endpoint in clinical trials. FAF is used to detect lesion growth with more than one timepoint of measurements. The change in lesion area measured by FAF can be plotted against time to calculate lesion growth rate, e.g., how fast or slow a patient's macula or retina is degenerating as compared to placebo. FAF imaging is used to compare the rate of anatomical or structural deterioration or change to evaluate a drug or treatment's therapeutic effect, e.g., reduced worsening of the retina degeneration.
In some embodiments, fundus autofluorescence (FAF) is used for evaluation of ocular disease or visual function. In some embodiments, one or more retina images of FAF is used for detection of atrophic areas. In some embodiments, one or more retina images of FAF is used to gain detailed insight into the health of the retinal pigment epithelium (RPE). In some embodiments, one or more images of FAF may be high-contrast retina images. In some embodiments, two types of decreased autofluorescence (DAF) may be quantified. In some embodiments, one type of DAF may be definite DAF (DDAF) which includes an area having a level of darkness being defined as qualitatively definite. In some embodiments, the other type of DAF may be questionable DAF (QDAF) which includes an area having a level of darkness being defined as qualitatively questionable. In some embodiments, the size of decreased autofluorescence (DAF) lesion may be the sum of all DDAF and QDAF. In some embodiments, DAF may be expressed as an area in square millimeters (mm^2).
(§2) The therapeutic effect of a compound of Formula (I), also known as Tinlarebant, was evaluated in a group of individuals with adolescent STGD. The treatment covered Phase 1b and Phase 2. Phase 1b included a 4-week treatment and a 14-day follow-up. Phase 2 included a 2-year treatment and 1-month follow-up. A total of 13 individuals received the treatment: 5 males and 8 females. All 13 individuals had STGD 1 aged 12-18 years old. All 13 individuals received the treatment of a compound of Formula (I), a RBP4 inhibitor.
(§3) The clinical study evaluated ocular and systemic safety and tolerability of the compound and determined the optimal dose, pharmacokinetics (PK), and […]. The study measured visual improvement by best corrected visual acuity (BCVA) test, self-reported visual questionnaire test, the change in lesion size by FAF, the change in retinal thickness and morphology by SD-OCT, the change in retinal sensitivity by microperimetry, and the change in quantitative AF. In addition, this study evaluated correlation between reduction in RBP4 and rate of lesion growth including change in autofluorescence.

[3] = tested on: adolescent STGD1 patients; assay: Clinical study: quantitative autofluorescence (qAF)
Text: In some embodiments, a method for measuring quantitative autofluorescence (qAF) is used or evaluation of ocular disease or visual function. In some embodiments, the qAF method may incorporate an internal fluorescent reference to account for variable laser power and detector sensitivity. In some embodiments, an intensity of AF may be calculated against the calibrated internal fluorescence reference standard in the optical pathway.
as §2, §3

[4] = tested on: adolescent STGD1 patients; assay: Clinical study (Phase 1b/2): ocular and systemic safety and tolerability
Protocol: as §2, §3
In addition, the treatment was able to maintain 80%-90% RBP4 reduction from baseline throughout the study. All patients received at least 7 months of the treatment. […] Delayed dark adaptation, night vision impairment, and xanthopsia/chromatopsia were the only drug related ophthalmic adverse events.

[5] = tested on: adolescent STGD1 patients; assay: Clinical study: best corrected visual acuity (BCVA) test
Text: In some embodiments, visual acuity may be evaluated with a logarithm of the minimum angle of resolution chart (log MAR chart). A log MAR chart comprises rows of letters that are used to estimate visual acuity. Zero log MAR may indicate standard vision, positive values may indicate poor vision and negative values may indicate good vision. In some embodiments, the best corrected visual acuity (BCVA) early treatment diabetic retinopathy study (ETDRS) letters score can be calculated with the following formula: […]
as §2, §3

[6] = tested on: adolescent STGD1 patients; assay: Clinical study: retinal thickness by SD-OCT (CST, MST, OST)
Text: as §1

[7] = subject 3, left eye, phase 2 baseline
[8] = subject 3, left eye, phase 2 month 6
[9] = subject 11, both eyes, phase 2 week 1 vs week 9
[10] = subject 4, left eye, phase 2 baseline
[11] = subject 4, left eye, phase 2 month 6

## CC(=O)N1CCc2c(C(=O)N3CCC(c4ccc(F)c(F)c4C(F)(F)F)CC3)n[nH]c2C1 [Tinlarebant]
[1]; cohort
  patients with improvement in EZ defect width (narrowing) in at least one eye: 5 patients
  patients with improvement in EZ defect width in both eyes: 3 patients
[1]; cohort, summary
  EZ defect width, trend: trend in reducing EZ defect width
[1]; left eye, cohort
  EZ defect width average increase: 0.48±0.26 mm
[1]; right eye, cohort
  EZ defect width average increase: 0.39±0.27 mm
[1]; subject 3, especially left eye, phase 2 week 1 vs week 9
  ellipsoid zone (EZ) width change: decreased in both eyes
[1]; subject 3, left eye
  EZ defect width reduction: 0.20 mm
[1]; [7]
  EZ defect width: 2.91 mm
[1]; [8]
  EZ defect width: 2.71 mm
[1]; subject 3, right eye
  EZ defect width reduction: 0.13 mm
[1]; subject 4, right eye, Phase 2 Baseline
  EZ defect width: 1.79 mm
[1]; subject 4, right eye, Phase 2 Month 6
  EZ defect width: 1.85 mm
[1]; subject 6, left eye
  EZ defect width reduction: 0.22 mm
[1]; subject 6, right eye
  EZ defect width reduction: 0.27 mm
[1]; [9]
  EZ width change: stabilized
[1]; subject 11, left eye, Phase 2 Baseline
  EZ defect width: 2.20 mm
[1]; subject 11, left eye, Phase 2 Month 6
  EZ defect width: 2.29 mm
[2]; cohort
  autofluorescence expansion (FAF), trend: trend of preventing or slowing autofluorescence expansion
  patients who maintained no DDAF lesion growth: 12 of the 13
  patients with no change or reduction in QDAF area in one or both eyes: 6 of 11
[2]; cohort, listed as compound of Formula (I)
  autofluorescence expansion (FAF), trend: trend in preventing or slowing autofluorescence expansion
[2]; left eye, cohort
  average change in QDAF area: 0.1±0.11 mm^2
[2]; right eye, cohort
  average change in QDAF area: 0.3±0.11 mm^2
[2]; subject 3, either eye, phase 2 week 1 vs week 9
  area size of QDAF: no increase
[2]; phase 2 baseline
  FAF lesion area: 2.7 mm^2
[2]; phase 2 month 6
  FAF lesion area: 2.7 mm^2
[2]; subject 4, left eye, Phase 2 Baseline vs Month 6 (FIG. 2A)
  QDAF in size: stabilization
[2]; subject 4, left or right eye, phase 2 week 1 vs week 9
  QDAF in size: no increase
[2]; [9]
  QDAF/DDAF change: transition of QDAF to DDAF
[3]; subject 3, both eyes, especially left, phase 2 week 1 vs week 9
  autofluorescence (AF) based on quantitative AF: decrease
[3]; [7]
  qDAF value: 351
[3]; [8]
  qDAF value: 268
[3]; subject 3, right eye, phase 2 baseline
  qDAF value: 335
[3]; subject 3, right eye, phase 2 month 6
  qDAF value: 275
[4]; 5 mg daily, adolescent STGD1 patients
  safety and tolerability: safe and well tolerated
[4]; 13 patients
  adverse events requiring discontinuation of treatment: no adverse events required discontinuation of treatment
  vital signs, physical exams, electrocardiogram (ECG), organ functions: No clinical significant findings
[4]; 13 patients, at least 7 months of treatment
  severe adverse events: No severe adverse events
[4]; after approximately 7 months of treatment (1 month Phase 1b, 6 months Phase 2)
  safety and tolerability: safe and well tolerated
[4]; all instances, 13 patients
  severity of delayed dark adaptation, night vision impairment, xanthopsia/chromatopsia (drug related ophthalmic adverse events): mild and transient
[4]; human, in vivo
  symptoms in patients with delayed dark adaptation: mostly asymptomatic
[4]; related adverse event
  Delayed Dark Adaptation: Frequency (subject): 8/13
  Night Vision Impairment: % Recovered: 0/1
  Night Vision Impairment: Frequency (subject): 1/13
  Xanthopsia/Chromatopsia: Frequency (subject): 9/13
[5]; cohort of 13
  patients with visual improvement in at least one eye (BCVA): 8 out of the 13
  patients with visual improvement in both eyes (BCVA): 2 patients
[5]; cohort, approximately 7 months
  visual improvement, summary: Majority of the patients showed visual improvement in at least one eye
[5]; left eye, cohort
  BCVA average letters of gain: 1.9±1.32 letters
[5]; right eye, cohort
  BCVA average letters of loss: −2.8±1.85 letters
[5]; subject 4, both eyes
  BCVA ETDRS letters gained: 3 ETDRS letters
[5]; subject 4, both eyes, intermediate value in 7-month treatment period
  BCVA letters: 50 letters
[5]; subject 4, both eyes, last value in 7-month treatment period
  BCVA letters: 53 letters
[5]; subject 4, both eyes, start of 7-month treatment period
  BCVA letters: 45 letters
[5]; subject 10, both eyes, approximately 7-month treatment
  BCVA letters gained: 9 letters
[5]; subject 11, left eye
  BCVA letters gained: 6 letters
[5]; subject 11, right eye
  BCVA change: no change
[6]; cohort
  patients with improvement (increase in thickness) or no change in OST in both eyes: 4 patients
  patients with no change or growth in MST in at least one eye: 5 patients
  patients with no to little change in CST in at least one eye: 5 patients
[6]; cohort means, Table 4
  CST change, Left Eye (mean ± SD, μm): −8.83 ± 1.91 μm
  CST change, Right Eye (mean ± SD, μm): −10.15 ± 1.5 μm
  MST change, Left Eye (mean ± SD, μm): −7.92 ± 2.13 μm
  MST change, Right Eye (mean ± SD, μm): −6.77 ± 1.74 μm
  OST change, Left Eye (mean ± SD, μm): −7.60 ± 2.62 μm
  OST change, Right Eye (mean ± SD, μm): −8.08 ± 2.47 μm
[6]; left eye, cohort
  CST average thinning: 7.6±2.14 microns
  MST average thinning: 7.2±2.54 microns
  OST average thinning: 3.11±3.5 microns
[6]; right eye, cohort
  CST average thinning: 10.27±2.2 microns
  MST average thinning: 6.27±2.03 microns
  OST average thinning: 3.8±3.08 microns
[6]; [7]
  average thickness: center: 97 micron
  average thickness: central max: 202 micron
  average thickness: central min: 97 micron
  average thickness: marker: 97 micron
[6]; [8]
  average thickness: center: 112 micron
  average thickness: central max: 216 micron
  average thickness: central min: 104 micron
  average thickness: marker: 112 micron
[6]; subject 3, overall
  change in CST, MST, or OST: little to no change
[6]; subject 4, both eyes, especially left, phase 2 week 1 vs week 9
  change of OST: increase
[6]; subject 4, either eye, phase 2 week 1 vs week 9
  change of MST: little to no change
[6]; [10]
  average thickness: center: 63 micron
  average thickness: central max: 218 micron
  average thickness: central min: 57 micron
  average thickness: marker: 60 micron
[6]; [11]
  average thickness: center: 58 micron
  average thickness: central max: 199 micron
  average thickness: central min: 54 micron
  average thickness: marker: 56 micron
[6]; subject 11, both eyes (one value per eye, eye not assigned)
  retinal thickness growth (stated after OST): 15 microns and 16 microns
[6]; [9]
  change of OST: increase
[6]; subject 11, either eye, phase 2 week 1 vs week 9
  change of CST or MST: little to no change
